Assay results: publication PMC5752149 (European journal of medicinal chemistry, 2017)

Assays:
[1] = target: T1, EphA2 receptor (Homo sapiens, UniProt P29317); experiment: EphA2 phosphorylation and internalization in MDA-MB-231 cells; type: cell-based
[2] = target: T1, EphA2 receptor; experiment: EphA2 phosphorylation in EphA2-overexpressing MDA-MB-231 cells; type: cell-based

T1 sequence (P29317 24-976): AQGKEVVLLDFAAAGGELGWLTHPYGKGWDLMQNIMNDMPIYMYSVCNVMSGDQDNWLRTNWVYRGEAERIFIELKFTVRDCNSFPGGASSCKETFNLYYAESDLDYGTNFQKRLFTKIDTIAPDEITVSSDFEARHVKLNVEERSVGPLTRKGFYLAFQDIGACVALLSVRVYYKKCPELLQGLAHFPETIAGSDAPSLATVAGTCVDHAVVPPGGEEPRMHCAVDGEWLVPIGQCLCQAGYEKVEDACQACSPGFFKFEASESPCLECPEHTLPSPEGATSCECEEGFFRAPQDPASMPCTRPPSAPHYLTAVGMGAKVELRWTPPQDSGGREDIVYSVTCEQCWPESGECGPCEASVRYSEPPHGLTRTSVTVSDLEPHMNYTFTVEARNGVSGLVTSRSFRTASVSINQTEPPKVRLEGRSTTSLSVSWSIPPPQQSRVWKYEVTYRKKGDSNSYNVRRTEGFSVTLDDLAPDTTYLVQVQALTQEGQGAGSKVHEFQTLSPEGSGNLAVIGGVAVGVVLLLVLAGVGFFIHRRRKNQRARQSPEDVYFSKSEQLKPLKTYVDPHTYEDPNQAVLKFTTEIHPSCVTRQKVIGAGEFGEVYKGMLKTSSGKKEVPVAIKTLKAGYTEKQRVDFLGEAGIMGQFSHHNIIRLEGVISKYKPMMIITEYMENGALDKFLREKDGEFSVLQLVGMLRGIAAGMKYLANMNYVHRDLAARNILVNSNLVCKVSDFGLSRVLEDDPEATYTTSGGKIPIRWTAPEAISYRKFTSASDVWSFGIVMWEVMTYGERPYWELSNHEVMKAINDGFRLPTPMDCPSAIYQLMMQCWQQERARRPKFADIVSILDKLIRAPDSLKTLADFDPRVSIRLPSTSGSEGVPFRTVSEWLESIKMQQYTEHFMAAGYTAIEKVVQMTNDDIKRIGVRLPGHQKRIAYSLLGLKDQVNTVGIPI

EphA2 phosphorylation in EphA2-overexpressing MDA-MB-231 cells; receptor interna [2]	SMILES	EphA2 phosphorylation and internalization in MDA-MB-231 cells (positive control, [1]
–	COc1cc2nc(N3CCN(C(=O)C4COc5ccccc5O4)CC3)nc(N)c2cc1OC (centres unmarked) [Doxazosin, 2-[4-(2,3-Dihydro-1,4-benzodioxine-2-carbonyl)piperazin-1-yl]-6,7-dimethoxyquinazolin-4-amine]	~ 50 μM
~ 0.4 μM	COc1cc2nc(N3CCN(C(=O)CCCCCCCCCCC(=O)N4CCN(c5nc(N)c6cc(OC)c(OC)cc6n5)CC4)CC3)nc(N)c2cc1OC [compound 27, 1,12-bis(4-(4-amino-6,7-dimethoxyquinazolin-2-yl)piperazin-1-yl)dodecane-1,12-dione]	–
